In ChEMBL document CHEMBL1151536, “Biaryl substituted alkylboronate esters as thrombin inhibitors” (Bioorg Med Chem Lett, 1997):

What was measured:
Prothrombin = Prothrombin (Homo sapiens, UniProt P00734); test: Inhibition of thrombin; design: species or system Oryctolagus cuniculus
Serine protease 1 = Serine protease 1 (Homo sapiens, UniProt P07477); test: Inhibition of trypsin
[1] = In vitro inhibitory concentration expressed as thrombin time of the compound; assay type: functional

Sequence of Serine protease 1 (P07477 whole entry): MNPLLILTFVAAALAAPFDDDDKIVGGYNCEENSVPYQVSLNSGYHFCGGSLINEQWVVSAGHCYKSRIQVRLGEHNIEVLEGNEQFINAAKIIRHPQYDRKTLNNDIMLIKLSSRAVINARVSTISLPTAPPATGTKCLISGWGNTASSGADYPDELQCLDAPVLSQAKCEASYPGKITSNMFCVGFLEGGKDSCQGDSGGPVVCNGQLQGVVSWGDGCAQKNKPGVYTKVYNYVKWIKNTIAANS

Ki (Prothrombin) [nM] | Ki (Serine protease 1) [nM] | IC50 [1] [nM] | Structure (SMILES)
4.9 | 4.8 |  | CC1(C)C2CC1[C@]1(C)OB([C@H](CCCN=C(N)N)NC(=O)c3ccc(-c4ccccc4)c([N+](=O)[O-])c3)O[C@@H]1C2 (some centres not stated)
1.7 |  |  | N=C(N)NCCC[C@H](NC(=O)c1ccc(-c2ccccc2)cc1)B(O)O
0.94 | 33 |  | CC1(C)C2CC1[C@]1(C)OB([C@H](CCCN=C(N)N)NC(=O)c3ccc(-c4ccccc4)cc3)O[C@@H]1C2 (some centres not stated)
42 | 13 |  | CC(C)(C)OC(=O)Nc1cccc(-c2ccc(C(=O)N[C@@H](CCCNC(=N)N)B3O[C@@H]4CC5CC(C5(C)C)[C@]4(C)O3)s2)c1 (some centres not stated)
1.1 | 0.64 | 225 | COC(=O)NS(=O)(=O)c1ccccc1-c1ccc(C(=O)N[C@@H](CCCN=C(N)N)B2O[C@@H]3CC4CC(C4(C)C)[C@]3(C)O2)c(C)c1 (some centres not stated)
580 |  |  | Cc1nc(-c2ccccc2)ccc1C(=O)N[C@@H](CCCCN)B1O[C@@H]2CC3CC(C3(C)C)[C@]2(C)O1 (some centres not stated)
5.5 | 4.7 |  | CC1(C)C2CC1[C@]1(C)OB([C@H](CCCN=C(N)N)NC(=O)c3ccc(-c4ccccc4)c(N)c3)O[C@@H]1C2 (some centres not stated)
0.42 | 4.2 | 600 | Cc1cc(-c2ccccc2)ccc1C(=O)N[C@@H](CCCN=C(N)N)B1O[C@@H]2CC3CC(C3(C)C)[C@]2(C)O1 (some centres not stated)
410 |  |  | Cc1nc(-c2ccccc2)ncc1C(=O)N[C@@H](CCCCN)B1O[C@@H]2CC3CC(C3(C)C)[C@]2(C)O1 (some centres not stated)
0.36 | 0.62 |  | CCN(CC)S(=O)(=O)c1ccccc1-c1ccc(C(=O)N[C@@H](CCCNC(=N)N)B2O[C@@H]3CC4CC(C4(C)C)[C@]3(C)O2)c(C)c1 (some centres not stated)
110 | 7.4 |  | CC1(C)C2CC1[C@]1(C)OB([C@H](CCCNC(=N)N)NC(=O)c3cccc(-c4ccccc4)c3)O[C@@H]1C2 (some centres not stated)
 |  | 55 | CC(=O)N[C@H](Cc1ccccc1)C(=O)N1CCC[C@H]1C(=O)N[C@@H](CCCN=C(N)N)B(O)O
10 |  |  | Cc1nc(-c2ccccc2)ncc1C(=O)N[C@@H](CCCN=C(N)N)B1O[C@@H]2CC3CC(C3(C)C)[C@]2(C)O1 (some centres not stated)
8.3 | 35 |  | CC(C)(C)OC(=O)Nc1cccc(-c2cccc(C(=O)N[C@@H](CCCN=C(N)N)B3O[C@@H]4CC5CC(C5(C)C)[C@]4(C)O3)c2)c1 (some centres not stated)
1.2 |  |  | CC1(C)C2CC1[C@]1(C)OB([C@H](CCCN=C(N)N)NC(=O)c3ccc(-c4ccccc4)cc3F)O[C@@H]1C2 (some centres not stated)
1.3 | 5.3 |  | CC1(C)C2CC1[C@]1(C)OB([C@H](CCCN=C(N)N)NC(=O)c3ccc(-c4ccccc4)cc3N)O[C@@H]1C2 (some centres not stated)
4.7 |  |  | CC1(C)C2CC1[C@]1(C)OB([C@H](CCCN=C(N)N)NC(=O)c3ccc(-c4ccccc4)cc3[N+](=O)[O-])O[C@@H]1C2 (some centres not stated)
30 | 25 |  | CC(C)(C)OC(=O)Nc1cccc(-c2ccc(C(=O)N[C@@H](CCCN=C(N)N)B3O[C@@H]4CC5CC(C5(C)C)[C@]4(C)O3)o2)c1 (some centres not stated)
137 |  |  | CC1(C)C2CC1[C@]1(C)OB([C@H](CCCNC(=N)N)NC(=O)c3ccc(-c4ccccc4)o3)O[C@@H]1C2 (some centres not stated)
19 |  |  | CC1(C)C2CC1[C@]1(C)OB([C@H](CCCNC(=N)N)NC(=O)c3ccc(-c4ccncc4)cc3)O[C@@H]1C2 (some centres not stated)
0.21 | 0.7 | 140 | Cc1cc(-c2ccccc2S(=O)(=O)NC(C)(C)C)ccc1C(=O)N[C@@H](CCCN=C(N)N)B1O[C@@H]2CC3CC(C3(C)C)[C@]2(C)O1 (some centres not stated)
0.46 | 3.1 |  | Cc1cc(-c2ccccc2C(F)(F)F)ccc1C(=O)N[C@@H](CCCN=C(N)N)B1O[C@@H]2CC3CC(C3(C)C)[C@]2(C)O1 (some centres not stated)
0.92 | 0.11 | 110 | Cc1cc(-c2ccccc2S(N)(=O)=O)ccc1C(=O)N[C@@H](CCCN=C(N)N)B1O[C@@H]2CC3CC(C3(C)C)[C@]2(C)O1 (some centres not stated)
512 | 70 |  | CC1(C)OB([C@H](CCCNC(=N)N)NC(=O)c2ccccc2)OC1(C)C
26 |  |  | Cc1cc(-c2ccccc2)ccc1C(=O)N[C@@H](CCCCN)B1O[C@@H]2CC3CC(C3(C)C)[C@]2(C)O1 (some centres not stated)
3.5 | 3.8 |  | CC1(C)C2CC1[C@]1(C)OB([C@H](CCCNC(=N)N)NC(=O)c3cccc(-c4cccc(NS(C)(=O)=O)c4)c3)O[C@@H]1C2 (some centres not stated)
6.9 |  |  | CC1(C)C2CC1[C@]1(C)OB([C@H](CCCN=C(N)N)NC(=O)Cc3ccc(-c4ccccc4)cc3)O[C@@H]1C2 (some centres not stated)
